Source: PubChem BioAssay AID330 (DTP/NCI, 2004)
Several values for one entry are separate records, joined by “and”; a condition that tells them apart may be missing. Equal entries are not always repeated. Toxic doses and inconclusive results are not listed.

System: P388 leukemia ip, CD2F1 mice, survival T/C
Test: NCI In Vivo Anticancer Drug Screen. Data for tumor model P388 Leukemia (intraperitoneal) in CD2F1 (CDF1) mice
Settings: endpoint: median survival time, higher = longer survival
In short: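 Mice carrying the transplanted tumor received test compound or vehicle. Survival was recorded in each group, and the value is the treated-group measurement divided by that of the vehicle-treated control group.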

[1] = dose: 30.0 mg/kg/injection, schedule: Q01DX005 (ip), vehicle: saline with Tween-80
[2] = dose: 60.0 mg/kg/injection, schedule: Q01DX005 (ip), vehicle: Klucel (hydroxypropylcellulose) (HPC)
[3] = dose: 120.0 mg/kg/injection, schedule: Q01DX005 (ip), vehicle: Klucel (hydroxypropylcellulose) (HPC)
[4] = dose: 240.0 mg/kg/injection, schedule: Q01DX005 (ip), vehicle: Klucel (hydroxypropylcellulose) (HPC)

For `NC(C/[N+]([O-])=N/O)C(=O)O` (stereo not drawn), the T/C (dose: 8.78 mg/kg/injection, schedule: Q01DX010 (ip), vehicle: alkali diluted with saline) was 119 % of control, the T/C (dose: 9.38 mg/kg/injection, schedule: Q01DX009 (ip), vehicle: alkali diluted with saline) was 120 % of control and the T/C (dose: 13.2 mg/kg/injection, schedule: Q01DX010 (ip), vehicle: alkali diluted with saline) was 124 % of control. The T/C (dose: 15.6 mg/kg/injection, schedule: Q01DX005 (ip), vehicle: saline with Tween-80) was 124 % of control, the T/C (dose: 15.6 mg/kg/injection, schedule: Q01DX005 (iv), vehicle: saline with Tween-80) was 107 % of control and the T/C (dose: 27.0 mg/kg/injection, schedule: Q01DX009 (ip), vehicle: alkali diluted with saline) was 161 % of control. The T/C (dose: 30.0 mg/kg/injection, schedule: Q01DX005 (ip), vehicle: alkali diluted with saline) was 161 % of control, the T/C (dose: 31.3 mg/kg/injection, schedule: Q01DX005 (iv), vehicle: saline with Tween-80) was 103 % of control and the T/C (dose: 37.5 mg/kg/injection, schedule: Q01DX009 (ip), vehicle: alkali diluted with saline) was 161 % of control and 162 % of control. For the same compound, the T/C (dose: 40.0 mg/kg/injection, schedule: Q01DX005 (ip), vehicle: alkali diluted with saline) was 150 % of control, the T/C (dose: 40.0 mg/kg/injection, schedule: Q01DX009 (ip), vehicle: alkali diluted with saline) was 165 % of control and the T/C (dose: 45.0 mg/kg/injection, schedule: Q01DX009 (ip), vehicle: alkali diluted with saline) was 152 % of control and 166 % of control. For the same compound, the T/C (dose: 60.0 mg/kg/injection, schedule: Q01DX005 (ip), vehicle: alkali diluted with saline) was 185 % of control, the T/C (dose: 62.5 mg/kg/injection, schedule: Q01DX005 (iv), vehicle: saline with Tween-80) was 111 % of control and the T/C (dose: 62.5 mg/kg/injection, schedule: Q01DX009 (ip), vehicle: saline) was 150 % of control. The T/C (dose: 62.5 mg/kg/injection, schedule: Q01DX009 (ip), vehicle: water) was 163 % of control, the T/C (dose: 66.7 mg/kg/injection, schedule: Q01DX009 (ip), vehicle: alkali diluted with saline) was 107 % of control and the T/C (dose: 75.0 mg/kg/injection, schedule: Q01DX009 (ip), vehicle: alkali diluted with water) was 166 % of control. The T/C (dose: 80.0 mg/kg/injection, schedule: Q01DX005 (ip), vehicle: alkali diluted with saline) was 182 % of control, the T/C (dose: 80.0 mg/kg/injection, schedule: Q01DX009 (ip), vehicle: alkali diluted with saline) was 99 % of control and the T/C (dose: 100.0 mg/kg/injection, schedule: Q01DX010 (ip), vehicle: alkali diluted with saline) was 92 % of control. For the same compound, the T/C (dose: 108.0 mg/kg/injection, schedule: Q04DX003 (ip), vehicle: alkali diluted with saline) was 161 % of control, the T/C (dose: 112.5 mg/kg/injection, schedule: Q04DX003 (ip), vehicle: alkali diluted with saline) was 150 % of control and the T/C (dose: 120.0 mg/kg/injection, schedule: Q01DX005 (ip), vehicle: alkali diluted with saline) was 70 % of control. For the same compound, the T/C (dose: 125.0 mg/kg/injection, schedule: Q01DX005 (ip), vehicle: saline with Tween-80) was 157 % of control, the T/C (dose: 125.0 mg/kg/injection, schedule: Q01DX005 (iv), vehicle: saline with Tween-80) was 107 % of control and the T/C (dose: 125.0 mg/kg/injection, schedule: Q01DX009 (ip), vehicle: alkali diluted with saline) was 66 % of control and 86 % of control. For the same compound, the T/C (dose: 125.0 mg/kg/injection, schedule: Q01DX009 (ip), vehicle: saline) was 154 % of control, the T/C (dose: 150.0 mg/kg/injection, schedule: Q01DX009 (ip), vehicle: alkali diluted with water) was 96 % of control and the T/C (dose: 180.0 mg/kg/injection, schedule: Q04DX003 (ip), vehicle: alkali diluted with saline) was 166 % of control. The T/C (dose: 200.0 mg/kg/injection, schedule: Q04DX003 (ip), vehicle: alkali diluted with water) was 155 % of control, the T/C (dose: 225.0 mg/kg/injection, schedule: Q04DX003 (ip), vehicle: alkali diluted with saline) was 178 % of control and the T/C (dose: 300.0 mg/kg/injection, schedule: Q04DX003 (ip), vehicle: alkali diluted with saline) was 175 % of control. The T/C (dose: 450.0 mg/kg/injection, schedule: Q04DX003 (ip), vehicle: alkali diluted with saline) was 115 % of control and the T/C (dose: 500.0 mg/kg/injection, schedule: Q04DX003 (ip), vehicle: alkali diluted with saline) was 198 % of control.

`CCOc1ccc(C(C)c2cc3c(cc2OC)OCO3)cc1` (stereo not drawn) was tested, and the T/C (dose: 15.0 mg/kg/injection, schedule: Q01DX005 (ip), vehicle: distilled water + Tween-80) was 102 % of control, the T/C (dose: 25.0 mg/kg/injection, schedule: Q01DX005 (ip), vehicle: distilled water + Tween-80) was 100 % of control and 105 % of control (2×) and the T/C (dose: 31.0 mg/kg/injection, schedule: Q01DX005 (ip), vehicle: distilled water + Tween-80) was 118 % of control. The T/C (dose: 62.5 mg/kg/injection, schedule: Q01DX005 (ip), vehicle: distilled water + Tween-80) was 124 % of control, the T/C (dose: 72.0 mg/kg/injection, schedule: Q01DX005 (ip), vehicle: distilled water + Tween-80) was 118 % of control and 119 % of control and the T/C (dose: 120.0 mg/kg/injection, schedule: Q01DX005 (ip), vehicle: distilled water + Tween-80) was 112 % of control and 120 % of control. The T/C (dose: 125.0 mg/kg/injection, schedule: Q01DX005 (ip), vehicle: distilled water + Tween-80) was 154 % of control.

For `[NH2-].[NH2-].[NH2-].[NH2-].[NH2-].[NH2-].[Ni]`, the T/C (dose: 6.25 mg/kg/injection, schedule: Q01DX001 (ip), vehicle: saline) was 97 % of control, the T/C (dose: 12.5 mg/kg/injection, schedule: Q01DX001 (ip), vehicle: saline) was 100 % of control and the T/C (dose: 25.0 mg/kg/injection, schedule: Q01DX001 (ip), vehicle: saline) was 98 % of control.

In the case of `CCCCn1/c(=N/N=Nc2ccccc2)sc2ccccc21`, the T/C (dose: 7.5 mg/kg/injection, schedule: Q01DX005 (ip), vehicle: saline with Tween-80) is reported as 115 % of control, the T/C (dose: 15.0 mg/kg/injection, schedule: Q01DX005 (ip), vehicle: saline with Tween-80) is reported as 117 % of control and the T/C [1] is reported as 118 % of control.

For `O=CN(Nc1ccccc1)C(=O)Nc1ccc(Cl)c(Cl)c1`, the T/C (dose: 100.0 mg/kg/injection, schedule: Q04DX002 (ip), vehicle: Klucel (hydroxypropylcellulose) (HPC)) was 96 % of control, the T/C (dose: 200.0 mg/kg/injection, schedule: Q04DX002 (ip), vehicle: Klucel (hydroxypropylcellulose) (HPC)) was 97 % of control and the T/C (dose: 400.0 mg/kg/injection, schedule: Q04DX002 (ip), vehicle: Klucel (hydroxypropylcellulose) (HPC)) was 104 % of control.

In the case of `CC(C)(C)OC(=O)CS(=O)Nc1ccccc1O` (stereo not drawn), the T/C [2] is reported as 105 % of control, the T/C [3] is reported as 108 % of control and the T/C [4] is reported as 97 % of control.

In the case of `CCN(CC)OC(=O)/C=C/c1ccccc1`, the T/C [1] is reported as 95 % of control, the T/C (dose: 60.0 mg/kg/injection, schedule: Q01DX005 (ip), vehicle: saline with Tween-80) is reported as 98 % of control and 93 % of control and the T/C (dose: 120.0 mg/kg/injection, schedule: Q01DX005 (ip), vehicle: saline with Tween-80) is reported as 86 % of control.

`CC1(C)C(=O)C(O)=Cc2ccccc21` was tested, and the T/C (dose: 50.0 mg/kg/injection, schedule: Q01DX005 (ip), vehicle: Klucel (hydroxypropylcellulose) (HPC)) was 109 % of control, the T/C (dose: 100.0 mg/kg/injection, schedule: Q01DX005 (ip), vehicle: Klucel (hydroxypropylcellulose) (HPC)) was 107 % of control and the T/C (dose: 200.0 mg/kg/injection, schedule: Q01DX005 (ip), vehicle: Klucel (hydroxypropylcellulose) (HPC)) was 101 % of control.

`COc1ccc2cc1Oc1ccc(cc1)C[C@H]1c3cc(c(OC)cc3CCN1C)Oc1c(O)c(OC)cc3c1[C@H](C2)N(C)CC3` was tested, and the T/C (dose: 25.0 mg/kg/injection, schedule: Q01DX009 (ip), vehicle: saline) was 106 % of control, the T/C (dose: 50.0 mg/kg/injection, schedule: Q01DX009 (ip), vehicle: saline) was 100 % of control and the T/C (dose: 50.0 mg/kg/injection, schedule: Q01DX009 (ip), vehicle: suspension in saline) was 103 % of control. The T/C (dose: 100.0 mg/kg/injection, schedule: Q01DX009 (ip), vehicle: saline) was 103 % of control and the T/C (dose: 100.0 mg/kg/injection, schedule: Q01DX009 (ip), vehicle: suspension in saline) was 102 % of control.

`CCCCNc1ncnc2[nH]ncc12` was tested, and the T/C (dose: 12.5 mg/kg/injection, schedule: Q01DX009 (ip), vehicle: saline with Tween-80) was 100 % of control, the T/C (dose: 12.5 mg/kg/injection, schedule: Q04DX003 (ip), vehicle: saline with Tween-80) was 90 % of control and the T/C (dose: 25.0 mg/kg/injection, schedule: Q01DX009 (ip), vehicle: saline with Tween-80) was 110 % of control. For the same compound, the T/C (dose: 25.0 mg/kg/injection, schedule: Q04DX003 (ip), vehicle: saline with Tween-80) was 95 % of control, the T/C (dose: 50.0 mg/kg/injection, schedule: Q01DX009 (ip), vehicle: saline with Tween-80) was 105 % of control and the T/C (dose: 50.0 mg/kg/injection, schedule: Q04DX003 (ip), vehicle: saline with Tween-80) was 90 % of control.

`CC1=CC(O)(c2nc3ccccc3s2)CC(C)(C)C1` (stereo not drawn) was tested, and the T/C [2] was 93 % of control, the T/C [3] was 94 % of control and the T/C [4] was 92 % of control.

In the case of `[N-]=[N+]=CC(=O)C1OC12C1CC3CC(C1)CC2C3` (stereo not drawn), the T/C (dose: 25.0 mg/kg/injection, schedule: Q01DX005 (ip), vehicle: saline with Tween-80) is reported as 86 % of control, the T/C (dose: 50.0 mg/kg/injection, schedule: Q01DX005 (ip), vehicle: saline with Tween-80) is reported as 105 % of control and the T/C (dose: 100.0 mg/kg/injection, schedule: Q01DX005 (ip), vehicle: saline with Tween-80) is reported as 113 % of control. The T/C (dose: 200.0 mg/kg/injection, schedule: Q01DX005 (ip), vehicle: saline with Tween-80) was 113 % of control.
